Assay results published in patent publication US5288709A, “Erythromycin derivatives” (priority 1991, dated 1994).
Converted amounts (≈) assume the structure as drawn. Read-outs that look alike come from different tables or passages of the source.

Experiments:
[1] = test system: Staphylococcus aureus CMX 686B; experiment: In-vitro antimicrobial activity primary screen (agar dilution MIC); assay type: cell-based; conditions: CMX686B, BHI agar, 20-24 h, read-out: MIC
Method in brief: (§1)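 Agar dilution in Brain Heart Infusion agar with twelve successive compound dilutions; plates inoculated with 1:100 diluted cultures by replicator and incubated 20-24 h at 35-37 °C. MIC is the lowest concentration giving no growth, slight haze or sparse isolated colonies versus compound-free control; erythromycin A plate run as reference.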

[2] = test system: Staphylococcus aureus CMX 503A; experiment: as above; assay type: cell-based; conditions: Staphylococcus aureus, CMX503A, 24 h, BHI agar, 20-24 h, read-out: MIC
Method in brief: as §1

[3] = test system: Staphylococcus aureus CMX 553; experiment: as above; assay type: cell-based; conditions: Staphylococcus aureus, CMX553, 24 h, BHI agar, 20-24 h, read-out: MIC
Method in brief: as §1

[4] = test system: Staphylococcus aureus (NCTC 10649); experiment: In-vivo acute mouse protection assay; parameters: species or system Staphylococcus aureus; female Swiss albino mice; conditions: Staphylococcus aureus, dosed 1 and 5 h post-infection, observed 7 days, read-out: ED50
Description: An acute mouse protection test was conducted on ten mice with each of three concentrations of selected compounds of the invention. Each concentration was a four-fold dilution of the previous concentration. The initial concentration will vary with the microorganism with which the mouse is challenged.
The acute mouse protection test was conducted on female, Swiss albino mice, 18-20 grams in weight. […] To check the potency of the inoculum, a titration of the indicated test organism was carried out in control animals. The titration determines the LD50 for a particular microorganism. The treatment groups of animals were dosed orally, by gavage, or subcutaneously with the test compounds at 1 and 5 hours post-infection and observed for 7 days. The ED50 were calculated using the mortality data collected.

[5] = test system: Micrococcus luteus ATCC 9341; experiment: In-vitro antimicrobial activity primary screen (agar dilution MIC); assay type: cell-based; conditions: Micrococcus luteus, ATCC9341, 24 h, BHI agar, 20-24 h
Method in brief: (§2)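 Twelve plates of successive aqueous compound dilutions in Brain Heart Infusion agar were spot-inoculated by Steers replicator with 1:100 culture dilutions (1:10 for slow growers such as Streptococcus) and incubated at 35-37° C for 20-24 hours. MIC was the lowest concentration giving no growth, slight haze or sparse colonies.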

[6] = test system: Enterobacter aerogenes ATCC 13048; experiment: as above; assay type: cell-based; conditions: Klebsiella aerogenes, ATCC13048, 24 h
Method in brief: as §2

[7] = test system: Staphylococcus aureus ATCC 6538P; experiment: as above; assay type: cell-based; conditions: Staphylococcus aureus, ATCC6538P, 24 h, BHI agar, 20-24 h
Method in brief: as §2

[8] = test system: Pseudomonas aeruginosa K799/61; experiment: as above; assay type: cell-based; conditions: Pseudomonas aeruginosa, K799/61, 24 h, Pseudomonas aeruginosa K799/61; BHI agar, 20-24 h
Method in brief: as §2

[9] = test system: Streptococcus agalactiae CMX 508; experiment: as above; assay type: cell-based; conditions: CMX508, BHI agar, 20-24 h, read-out: MIC
Method in brief: as §2

Pseudomonas cepacia 2961 = experiment: as above; assay type: cell-based; conditions: Burkholderia cepacia, 2961, 24 h, BHI agar, 20-24 h
Method in brief: as §2

[10] = test system: Pseudomonas aeruginosa BMH10; experiment: as above; assay type: cell-based; conditions: Pseudomonas aeruginosa, BMH10, 24 h, BHI agar, 20-24 h
Method in brief: as §2

Escherichia coli H560 = experiment: as above; assay type: cell-based; conditions: Escherichia coli, H560, 24 h, Escherichia coli H560; BHI agar, 20-24 h
Method in brief: as §2

[11] = test system: Pseudomonas aeruginosa K799/WT; experiment: as above; assay type: cell-based; conditions: Pseudomonas aeruginosa, K799/WT, 24 h
Method in brief: as §2

[12] = test system: Enterococcus faecium ATCC 8043; experiment: as above; assay type: cell-based; conditions: ATCC8043; Enterococcus faecium ATCC 8043; BHI agar, 20-24 h; read-out: MIC
Method in brief: as §2

[13] = test system: Providencia stuartii CMX 640; experiment: as above; assay type: cell-based; conditions: Providencia stuartii, CMX640, 24 h
Method in brief: as §2

[14] = test system: Staphylococcus aureus 45 RAR2; experiment: as above; assay type: cell-based; conditions: Staphylococcus aureus, 45RAR2, 24 h, BHI agar, 20-24 h
Method in brief: as §2

[15] = test system: Staphylococcus epidermidis 3519; experiment: as above; assay type: cell-based; conditions: BHI agar, 20-24 h, read-out: MIC
Method in brief: as §2

Escherichia coli JUHL = experiment: as above; assay type: cell-based; conditions: Escherichia coli, 24 h, Escherichia coli JUHL; BHI agar, 20-24 h
Method in brief: as §2

[16] = test system: Streptococcus bovis A5169; experiment: as above; assay type: cell-based; conditions: Streptococcus equinus, BHI agar, 20-24 h, read-out: MIC
Method in brief: as §2

[17] = test system: Staphylococcus aureus A5177; experiment: as above; assay type: cell-based; conditions: Staphylococcus aureus, A5177, 24 h, Staphylococcus aureus A5177; BHI agar, 20-24 h
Method in brief: as §2

[18] = test system: Streptococcus pyrogenes 2548 INDUC; experiment: as above; assay type: cell-based; conditions: BHI agar, 20-24 h, read-out: MIC
Method in brief: as §2

Escherichia coli DC-2 = experiment: as above; assay type: cell-based; conditions: Escherichia coli, DC2, 24 h, Escherichia coli DC-2; BHI agar, 20-24 h
Method in brief: as §2

Escherichia coli SS = experiment: as above; assay type: cell-based; conditions: Escherichia coli, 24 h, BHI agar, 20-24 h
Method in brief: as §2

[19] = test system: Pseudomonas aeruginosa A5007; experiment: as above; assay type: cell-based; conditions: Pseudomonas aeruginosa, A5007, 24 h
Method in brief: as §2

[20] = test system: Micrococcus luteus ATCC 4698; experiment: as above; assay type: cell-based; conditions: ATCC4698, BHI agar, 20-24 h, read-out: MIC
Method in brief: as §2

[21] = test system: Streptococcus pyrogenes EES61; experiment: as above; assay type: cell-based; conditions: BHI agar, 20-24 h, read-out: MIC
Method in brief: as §2

Staphylococcus aureus 45 = experiment: as above; assay type: cell-based; conditions: BHI agar, 20-24 h, read-out: MIC
Method in brief: as §2

SMILES: CC[C@H]1OC(=O)[C@H](C)[C@@H](O[C@H]2C[C@@](C)(OC)[C@H](N)[C@H](C)O2)[C@H](C)[C@@H](O[C@@H]2O[C@H](C)C[C@H](N(C)C)[C@H]2O)[C@](C)(O)C[C@@H](C)[C@@H]2O[C@@]1(C)[C@@H](O)[C@H]2C [Example 13, (4"R,9S,11S) 4"-Amino-9-deoxo-4",12-dideoxy-9,12-epoxyerythromycin A]
- MIC [1]: 0.2 µg/mL (≈ 0.279 µM)
- MIC [2]: 0.2 µg/mL (≈ 0.279 µM)
- MIC [3]: 0.2 µg/mL (≈ 0.279 µM)
- ED50 ([4]; NCTC10649, 168 h, oral): 126 mg/kg
- ED50 ([4]; NCTC10649, sc, 168 h, subcutaneous): 39.6 mg/kg
- MIC [5]: 0.01 µg/mL (≈ 0.0139 µM)
- MIC [6]: 100 µg/mL (≈ 139 µM)
- MIC [7]: 0.2 µg/mL (≈ 0.279 µM)
- MIC [8]: 1.56 µg/mL (≈ 2.18 µM)
- MIC [9]: 0.02 µg/mL (≈ 0.0279 µM)
- MIC (Pseudomonas cepacia 2961): > 100 µg/mL
- MIC [10]: 100 µg/mL (≈ 139 µM)
- MIC (Escherichia coli H560): 12.5 µg/mL (≈ 17.4 µM)
- MIC [11]: 100 µg/mL (≈ 139 µM)
- MIC [12]: 0.05 µg/mL (≈ 0.0697 µM)
- MIC [13]: > 100 µg/mL
- MIC [14]: 0.2 µg/mL (≈ 0.279 µM)
- MIC [15]: 0.2 µg/mL (≈ 0.279 µM)
- MIC (Escherichia coli JUHL): 50 µg/mL (≈ 69.7 µM)
- MIC [16]: 0.01 µg/mL (≈ 0.0139 µM)
- MIC [17]: 0.78 µg/mL (≈ 1.09 µM)
- MIC [18]: 0.78 µg/mL (≈ 1.09 µM)
- MIC (Escherichia coli DC-2): 50 µg/mL (≈ 69.7 µM)
- MIC (Escherichia coli SS): 0.2 µg/mL (≈ 0.279 µM)
- MIC [19]: > 100 µg/mL
- MIC [20]: 0.05 µg/mL (≈ 0.0697 µM)
- MIC [21]: < 0.005 µg/mL
- MIC (Staphylococcus aureus 45): 0.2 µg/mL (≈ 0.279 µM)
